Source: US20030003488A1, “Regulation of human mitochondrial deformylase” (priority 1999, published 2003)

Test system: human mitochondrial deformylase
Experiment: Expression of mitochondrial deformylase by Western blotting in antisense-treated HCT 116 cells
Assay type: cell-based
Conditions: 10 micromolar once per day for seven days

Substance | expression of the mitochondrial deformylase as determined by Western blotting
5′-AAAATGCAGGTAAGCATGTGAAAA-3′ [oligonucleotide (2)] | significantly reduced expression
5′-CAGCGATTTAAATACGGAACAAGG-3′ [oligonucleotide (1)] | significantly reduced expression
5′-TCAACTGACTAGATGTACATGGAC-3′ (DNA TCAACTGACTAGATGTACATGGAC; chemistry not given here) [oligonucleotide (3), reference compound] | not observed
